Article doi:10.1101/2024.11.03.621781v1 (bioRxiv, 2024)

What was measured:
Type in all cases: cell-based
HeLa cells [1] = experiment: Autophagy flux assay with Bafilomycin A1, LC3B/LAMP2 double immunofluorescence; settings: control cells treated with BafA1
HeLa cells [2] = experiment: LC3B immunofluorescence, autophagy induction; settings: time-dependent LC3B immunostaining, then return to baseline
HeLa cells [3] = experiment: LC3B lipidation assay by western blot; settings: GAPDH loading control

| SMILES | autophagosome accumulation (LC3B puncta) in control cells (HeLa cells [1]) | time of peak autophagy induction (HeLa cells [2]) [min] | LC3B-II/LC3B-I ratio (LC3B lipidation) (HeLa cells [3]) |
| --- | --- | --- | --- |
| CO/C1=C\C(C)=C\[C@@H](C)[C@@H](O)[C@@H](C)C/C(C)=C/C=C/[C@H](OC)[C@@H]([C@@H](C)[C@@H](O)[C@H](C)[C@@]2(O)C[C@@H](O)[C@H](C)[C@@H](C(C)C)O2)OC1=O [BafA1, Bafilomycin A1] | marked accumulation of autophagosomes |  |  |
| CO[C@H]1C[C@@H]2CC[C@@H](C)[C@@](O)(O2)C(=O)C(=O)N2CCCC[C@H]2C(=O)O[C@H]([C@H](C)C[C@@H]2CC[C@@H](O)[C@H](OC)C2)CC(=O)[C@H](C)/C=C(\C)[C@@H](O)[C@@H](OC)C(=O)[C@H](C)C[C@H](C)/C=C/C=C/C=C/1C [rapamycin] |  | 90 | increased LC3B- II/LC3B-I ratio |
